This note sets out measurements from patent US7968565B2, “Therapeutic combinations comprising (+)-1,4-dihydro-7-[(3S,4S)-3-methoxy-4-(methylamino)-1-pyrrolidinyl]-4-oxo-1-(2-thiazolyl)-1,8-naphthyridine-3-carboxylic acid” (Sunesis Pharmaceuticals, Inc., priority 2004, dated 2011).

Data set [1] concerns various cells. In words: Cytotoxicity of SNS-595 in various cells. It is filed as cell-based. The source says:
SNS-595 is a cell cycle inhibitor and arrests cells at the G2 interface. Initially, the activity of SNS-595 was believed due to topoisomerase II inhibition.
As shown by FIG. 1, ATM, ATR, and DNA-PK are three central DNA sensors/effectors that depending on the level of DNA damage that is detected within an individual cell, direct the cell into one of several outcomes including DNA repair, G2 arrest or apoptosis.

Data set [2] has as its system non-proliferating cells. Briefly: Cytotoxicity to non-proliferating cells. Particulars: doses cytotoxic to proliferating cells. In kind it is cell-based. The text has this:
Treatment with SNS-595 results in an increase in the number of double-strand DNA breaks that form during the S phase. This damage impedes the ability of the cell to synthesize DNA and lengthens the time the cell spends in the S phase. […] When the DNA damage is sufficiently severe such that the double-strand breaks cannot be repaired through non-homologous end joining (NHEJ), the cell rapidly enters apoptosis. Some cells are able to reach the G2 phase but are subsequently arrested (mediated by cdc2/cyclin B) because the cells are too damaged to enter into the M phase and also eventually becomes apoptotic.

The test system of data set [3] is stable variant of HCT-116 cells. Briefly: Sensitivity of SNS-595-resistant HCT-116 variant. In kind it is cell-based. Particulars: cells with induced resistance. The source says: Consistent with this mechanism, cells with induced resistance to SNS-595 also have alterations in the DNA-PK pathway. […] Conversely, decreased levels of DNA-PK or its activity (e.g. in the presence of an inhibitor) is associated with an increased sensitivity to SNS-595.

The subject of data set [4] is DNA-PK pathway. Briefly: Dose-dependent responses of DNA-PK pathway members in HCT 116 cells (FIG. 2). It is filed as cell-based. Particulars: H2AX, c-Abl, p53, p73, p21, caspase-9, caspase-3. The text has this:
This damage impedes the ability of the cell to synthesize DNA and lengthens the time the cell spends in the S phase. […] When the DNA damage is sufficiently severe such that the double-strand breaks cannot be repaired through non-homologous end joining (NHEJ), the cell rapidly enters apoptosis. Some cells are able to reach the G2 phase but are subsequently arrested (mediated by cdc2/cyclin B) because the cells are too damaged to enter into the M phase and also eventually becomes apoptotic.

Data set [5] concerns DNA-PK pathway. In words: Pharmacodynamic study, HCT116 xenograft tumors, Western blots (FIG. 3). It is filed as in vivo. Particulars: nu/nu mice, IV bolus 20 or 40 mg/kg, 1-24 hours post dose. As to the method: Nu/nu mice (ca. 25 grams) were injected with HCT116 cells (which were obtained from the ATCC) in the hind flank at 5 million cells with 50% matrigel (Becton-Dickinson). Tumors were allowed to grow to 400 mm^3. Xenograft bearing animals were then given either an IV bolus injection of SNS-595 (20 or 40 mg/kg) in the tail vein or a saline vehicle. At prescribed time points (1, 2, 4, 8, 16, and 24 hours post dose), animals were anesthetized with CO2, blood was taken via terminal cardiac puncture, and animals were sacrificed. Tumors were excised, pulverized using liquid nitrogen-cooled mortar and pestle, and flash-frozen in liquid nitrogen. Tumor lysates were made from pulverized samples by addition of lysis buffer. The protein concentrations of the DNA-PK pathway members were determined by Western blots. Approximately 25 micrograms of protein was loaded per lane on an SDS-PAGE gel. Proteins were separated by gel electrophoresis, blotted onto nitrocellulose membranes, and detected using the following antibodies: H2AX, phosphorylated at S139 (Cell Signaling, catalog no. 2577L); p53, phosphorylated at S15 (Cell Signaling, catalog no. 9284S); p53, phosphorylated at S37 (Cell Signaling, catalog no. 9289S); p21 (Cell Signaling, catalog no. 2946); cdc2, phosphorylated at Y15 (Calbiochem, catalog no. 219437); cyclin B (Santa Cruz, catalog no.sc-594 (H-20)); p73, phosphorylated at […] […]
For orientation: A western blot detects proteins with antibodies after separation by electrophoresis.

Data set [6] can be described thus: Pharmacokinetics of SNS-595 in cancer patients. In kind it is in vivo, human. As to the method:
SNS-595 was administered to enrolled patients for up to six cycles. A cycle is defined as a three-week period, with SNS-595 administered on the first day of each cycle (day 0), followed by at least 21 days of observation. SNS-595 was administered to cohorts of at least 3 patients and dose escalation occurred by sequential cohort.

One may read the EC50 as the midpoint of the concentration-response curve. `CN[C@H]1CN(c2ccc3c(=O)c(C(=O)O)cn(-c4nccs4)c3n2)C[C@@H]1OC` [SNS-595, (+)-1,4-dihydro-7-[(3S,4S)-3-methoxy-4-(methylamino)-1-pyrrolidinyl]-4-oxo-1-(2-thiazoyl)-1,8-naphthyridine-3-carboxylic acid]: in data set [1], the EC50 lay within 200 to 300 nM and the “difference in potency, cell EC50 versus biochemical inhibition of topoisomerase II” value is “at least a ten-fold difference”. Further, the “EC50 in caffeine treated cells (G2 arrest abrogated) versus untreated cells” value in data set [1] (caffeine inhibits ATM and ATR) is reported as “essentially no difference in EC50 values”. Besides, in data set [1] (topoisomerase II levels modulated with 2-deoxyglucose), the “activity in 2-deoxyglucose treated cells versus untreated cells” value is listed as “essentially no difference in activity”. Moreover, the “lethality to non-proliferating cells” value in data set [2] is recorded as “non-lethal”. Also, in data set [3], the “sensitivity to SNS-595 relative to HCT-116 cells” value is “approximately ten fold less sensitive”. The “activation of DNA-PK mediated repair and apoptotic machinery” value in data set [4] was “activates, in a dose dependent manner”. For the same molecule, in data set [5], the “levels of DNA-PK pathway members in tumors” value is given as “activated”. Further, the “relation of dose with AUC∞” value in data set [6] (dose escalation by cohort) is given as “linear”. Besides, the MRT inf in data set [6] (human, intravenous, plasma, dose 3 mg/m2, mean, read-out: MRTINF_obs) came out at 22 h. This molecule also displayed an MRTINF_obs in data set [6] (plasma, dose 6 mg/m2, mean) of 29.05 h. In data set [6] (plasma, dose 12 mg/m2, mean), the C0 is 2888.66 ng/mL and the MRTINF_obs stood at 23.67 h.
